The test system of this data set is CCRIS mutagenicity, Ames/micronucleus/aberration tests. In words: CCRIS mutagenicity studies.
The mark [1] stands for this setting: Test System: AMES SALMONELLA TYPHIMURIUM, Strain/Indicator: TA98, Metabolic Activation: RAT, LIVER, S-9, AROCLOR 1254, Method: STANDARD PLATE.
[2] abbreviates: Test System: AMES SALMONELLA TYPHIMURIUM, Strain/Indicator: TA98, Metabolic Activation: NONE, Method: PREINCUBATION
Where [3] appears, read: Test System: AMES SALMONELLA TYPHIMURIUM, Strain/Indicator: TA100, Metabolic Activation: NONE, Method: STANDARD PLATE.
Where [4] appears, read: Test System: AMES SALMONELLA TYPHIMURIUM, Strain/Indicator: TA100, Metabolic Activation: RAT, LIVER, S-9, AROCLOR 1254, Method: STANDARD PLATE.
Setting [5] is: Test System: AMES SALMONELLA TYPHIMURIUM, Strain/Indicator: TA100, Metabolic Activation: NONE, Method: PREINCUBATION
The mark [6] stands for this setting: Test System: AMES SALMONELLA TYPHIMURIUM, Strain/Indicator: TA98, Metabolic Activation: RAT, LIVER, S-9, PHENOBARBITAL AND 5,6-BENZOFLAVONE, Method: PREINCUBATION
The mark [7] stands for this setting: Test System: AMES SALMONELLA TYPHIMURIUM, Strain/Indicator: TA100, Metabolic Activation: RAT, LIVER, S-9, PHENOBARBITAL AND 5,6-BENZOFLAVONE, Method: PREINCUBATION

Calls of active or inactive are those of the source. No rule for the calls is given here.

As to `CC(=O)Nc1ccc2ccc3c(O)ccc4ccc1c2c43`, the mutagenic call is “inactive; negative” (Test System: AMES SALMONELLA TYPHIMURIUM, Strain/Indicator: TA98(1,8-DNP6), Metabolic Activation: NONE, Method: STANDARD PLATE); “inactive; negative” (Test System: AMES SALMONELLA TYPHIMURIUM, Strain/Indicator: TA98(1,8-DNP6), Metabolic Activation: RAT, LIVER, S-9, AROCLOR 1254, Method: STANDARD PLATE); “active; positive” under setting [1]; “inactive; negative” (Test System: AMES SALMONELLA TYPHIMURIUM, Strain/Indicator: YG1024, Metabolic Activation: NONE, Method: STANDARD PLATE); “active; positive” (Test System: AMES SALMONELLA TYPHIMURIUM, Strain/Indicator: YG1024, Metabolic Activation: RAT, LIVER, S-9, AROCLOR 1254, Method: STANDARD PLATE).

With `CC1CCC(C(C)C)C(O)C1` (stereo unspecified), the mutagenic call (End Point: IN VITRO CHROMOSOMAL ABERRATIONS, Test System: CHO CELLS, Metabolic Activation: NONE) was “active; positive” and the mutagenic call (End Point: IN VITRO CHROMOSOMAL ABERRATIONS, Test System: TK6 HUMAN LYMPHOBLASTS, Metabolic Activation: NONE) was “active; positive”.

In the case of `O=NN1CCSC1`, the mutagenic call reads like this: under setting [2], “inactive; negative”; (Test System: AMES SALMONELLA TYPHIMURIUM, Strain/Indicator: TA98, Metabolic Activation: NONE, Method: STANDARD PLATE) “inactive; negative”; (Test System: AMES SALMONELLA TYPHIMURIUM, Strain/Indicator: TA98, Metabolic Activation: RAT, LIVER, S-9, AROCLOR 1254, Method: PREINCUBATION) “inactive; negative”; under setting [1], “active; positive”; under setting [3], “active; positive”; (Test System: AMES SALMONELLA TYPHIMURIUM, Strain/Indicator: TA100, Metabolic Activation: RAT, LIVER, S-9, AROCLOR 1254, Method: PREINCUBATION) “active; positive”. Moreover, the mutagenic call under setting [4] was “active; positive” and the mutagenic call (Test System: UDS RAT PRIMARY HEPATOCYTES, Strain/Indicator: THY INCORP, Metabolic Activation: NONE) was “active; positive”.

For `C=C(Cl)C=O`, the mutagenic call runs as follows: (Test System: AMES SALMONELLA TYPHIMURIUM, Strain/Indicator: TA100, Metabolic Activation: NONE, Method: LIQUID INCUBATION) “active; positive”; (Test System: AMES SALMONELLA TYPHIMURIUM, Strain/Indicator: TA100, Metabolic Activation: NONE, Method: PREINCUBATION, LIQUID INCUBATION) “active; positive”; (Test System: AMES SALMONELLA TYPHIMURIUM, Strain/Indicator: TA1535, Metabolic Activation: NONE, Method: LIQUID INCUBATION) “active; positive”; (Test System: AMES SALMONELLA TYPHIMURIUM, Strain/Indicator: TA1535, Metabolic Activation: NONE, Method: PREINCUBATION, LIQUID INCUBATION) “active; positive”.

Regarding `CNc1ccc2nc(C)c(C)nc2c1C`, the mutagenic call by setting is: under setting [2], “inactive; negative”; (Test System: AMES SALMONELLA TYPHIMURIUM, Strain/Indicator: TA98, Metabolic Activation: RAT, LIVER, S-9, PCB, Method: PREINCUBATION) “active; positive”; under setting [5], “inactive; negative”; (Test System: AMES SALMONELLA TYPHIMURIUM, Strain/Indicator: TA100, Metabolic Activation: RAT, LIVER, S-9, PCB, Method: PREINCUBATION) “active; positive”.

Regarding `COC(=O)C1=C(C)NC(C)=C(C(=O)OC/C=C/c2ccccc2)C1c1cccc([N+](=O)[O-])c1` (stereo unspecified), the mutagenic call under setting [2] was “inactive; negative”; the mutagenic call under setting [6] was “inactive; negative”; the mutagenic call under setting [5] is “inactive; negative”; the mutagenic call under setting [7] is “inactive; negative”; the mutagenic call (Test System: AMES SALMONELLA TYPHIMURIUM, Strain/Indicator: TA1535, Metabolic Activation: NONE, Method: PREINCUBATION) is “inactive; negative”; the mutagenic call (Test System: AMES SALMONELLA TYPHIMURIUM, Strain/Indicator: TA1535, Metabolic Activation: RAT, LIVER, S-9, PHENOBARBITAL AND 5,6-BENZOFLAVONE, Method: PREINCUBATION) was “inactive; negative”. For the same molecule, the mutagenic call runs as follows: (Test System: AMES SALMONELLA TYPHIMURIUM, Strain/Indicator: TA1537, Metabolic Activation: NONE, Method: PREINCUBATION) “inactive; negative”; (Test System: AMES SALMONELLA TYPHIMURIUM, Strain/Indicator: TA1537, Metabolic Activation: RAT, LIVER, S-9, PHENOBARBITAL AND 5,6-BENZOFLAVONE, Method: PREINCUBATION) “inactive; negative”; (Test System: E. COLI, Strain/Indicator: WP2 UVRA, Metabolic Activation: NONE, Method: PREINCUBATION) “inactive; negative”; (Test System: E. COLI, Strain/Indicator: WP2 UVRA, Metabolic Activation: RAT, LIVER, S-9, PHENOBARBITAL AND 5,6-BENZOFLAVONE, Method: PREINCUBATION) “inactive; negative”.

In the case of `COc1ccc2oc([N+](=O)[O-])cc2c1N(CCCl)CCCl`, the mutagenic call reads like this: (Test System: AMES SALMONELLA TYPHIMURIUM, Strain/Indicator: TA100(NR), Metabolic Activation: NONE, Method: STANDARD PLATE) “active; positive”; (Test System: AMES SALMONELLA TYPHIMURIUM, Strain/Indicator: TA100(NR), Metabolic Activation: RAT, LIVER, S-9, AROCLOR 1254, Method: STANDARD PLATE) “active; positive”; under setting [3], “active; positive”; under setting [4], “active; positive”.

In the case of `COc1cc(C(=O)OCCCN2CCCN(CCCOC(=O)c3cc(OC)c(OC)c(OC)c3)CC2)cc(OC)c1OC`, the mutagenic call (Test System: AMES SALMONELLA TYPHIMURIUM, Strain/Indicator: TA98, Metabolic Activation: NONE) is “inactive; negative”; the mutagenic call (Test System: AMES SALMONELLA TYPHIMURIUM, Strain/Indicator: TA98, Metabolic Activation: RAT, LIVER, S-9, PHENOBARBITAL AND 5,6-BENZOFLAVONE) is “inactive; negative”; the mutagenic call (Test System: AMES SALMONELLA TYPHIMURIUM, Strain/Indicator: TA100, Metabolic Activation: NONE) is “inactive; negative”; the mutagenic call (Test System: AMES SALMONELLA TYPHIMURIUM, Strain/Indicator: TA100, Metabolic Activation: RAT, LIVER, S-9, PHENOBARBITAL AND 5,6-BENZOFLAVONE) is “inactive; negative”; the mutagenic call (Test System: AMES SALMONELLA TYPHIMURIUM, Strain/Indicator: TA1535, Metabolic Activation: NONE) is “inactive; negative”; the mutagenic call (Test System: AMES SALMONELLA TYPHIMURIUM, Strain/Indicator: TA1535, Metabolic Activation: RAT, LIVER, S-9, PHENOBARBITAL AND 5,6-BENZOFLAVONE) was “inactive; negative”. The mutagenic call is, setting by setting: (Test System: AMES SALMONELLA TYPHIMURIUM, Strain/Indicator: TA1537, Metabolic Activation: NONE) “inactive; negative”; (Test System: AMES SALMONELLA TYPHIMURIUM, Strain/Indicator: TA1537, Metabolic Activation: RAT, LIVER, S-9, PHENOBARBITAL AND 5,6-BENZOFLAVONE) “inactive; negative”; (Test System: E. COLI, Strain/Indicator: WP2 UVRA, Metabolic Activation: NONE) “inactive; negative”; (Test System: E. COLI, Strain/Indicator: WP2 UVRA, Metabolic Activation: RAT, LIVER, S-9, PHENOBARBITAL AND 5,6-BENZOFLAVONE) “inactive; negative”.

Consider `Nc1cc([N+](=O)[O-])ccc1CO`, for which the mutagenic call reads like this: under setting [2], “active; positive”; under setting [6], “active; positive”; under setting [5], “active; positive”; under setting [7], “active; positive”.

(Values after PubChem BioAssay AID1259407 (Chemical Carcinogenesis Research Information System (CCRIS), 2018).)
